PMC8151276, “An Integrated Approach toward NanoBRET Tracers for Analysis of GPCR Ligand Engagement” (Molecules, 2021)

Target: T1, OPRM1 (Homo sapiens, UniProt P35372)
T1 construct: purchased Promega (in-house HiBiT-GPCR construct library, NanoBRET)
Assay: NanoBRET screen HiBiT-OPRM1 in HEK293
Assay type: binding
Method: Each tracer candidate was screened across the entire library of HiBiT-GPCR constructs using NanoBRET as the detection modality. As depicted in Figure 4A, the specificity of interactions was evaluated through decrease in BRET due to competitive displacement of a bound tracer by excess parental compound. Each tracer was analyzed for binding to each HiBiT-GPCR fusion in the absence and in the presence of competing parental compound. Briefly, HEK293 cells were transfected with HiBiT-GPCR constructs diluted into promoterless DNA to reduce expression and maximize translocation to the cell surface. Each tracer candidate was then screened at concentrations of 1 μM and 0.1 μM across cells expressing these fusions. Cells were treated for 1.5 h with tracer either alone or in the presence of 20 μM competing parental compound (i.e., control). BRET was measured upon addition of purified LgBiT and subsequent complementation with HiBiT genetically fused to a GPCR. The specificity of interactions was assessed through a decrease in BRET signal due to competitive displacement of the bound tracer. To further gauge the robustness of these interactions, the fold response over the control (i.e., BRETtracer/BRETcontrol) was calculated. We chose a 1.5-fold response, which translates to ≥7-fold signal over noise as the minimal threshold required to score an interaction as positive.
HiBiT-GPCR DNA constructs were diluted in 10 mM Tris pH 8 to a final concentration of 0.01 μg/μL, arrayed in 96-well plates and stored at −20 °C. For transfection, HEK293 cells were suspended in Opti-MEM (without phenol red) supplemented with 2% fetal bovine serum (Seradigm) and 100 units/mL penicillin–streptomycin (Gibco) at a final concentration of 220,000 cells/mL and dispensed into white 96-well plates at 90 μL/well. Subsequent transfections and screens were carried using an Agilent Bravo Automated Liquid Handling Platform. First, the 96-well HiBiT DNA arrays were diluted 25-fold in Opti-MEM (without serum or phenol red) to a final concentration of 0.0004 μg/μL and 20 μL of the diluted DNAs were transferred into new 96-well plates. Next, promoterless carrier DNA (1 μg/μL) was diluted 25-fold (0.04 μg/μL) and then dispensed into the diluted arrays at 20 μL/well. Following brief mixing, Viafect transfection reagent (Promega) diluted 16-fold into Opti-MEM was dispensed into the plates at 40 μL/well. After mixing by pipetting, plates were incubated for 10 min on the pipetting station deck. The DNA-transfection reagent complexes were then added to plates containing cells. To facilitate the screen, 10 μL of DNA-transfection reagent complexes were added in duplicates to the top 4 and bottom 4 rows, resulting in two identical 48-well arrays per plate. Plates with transfected cells were incubated for 18–20 h at 37 °C/5% CO2. A screen of each tracer across the entire library using two different concentrations requires duplicate plates of transfected cells. Depending on the number of tracers being screened, transfections can be scaled up using the same ratios. The next day, for each tracer, four 20× screening solutions in tracer dilution buffer (Promega) were prepared: two duplicates at final concentration of 20 μM and two duplicates at a final concentration of 2 μM. […] The four resulting solutions were diluted 4-fold in Opti-MEM without serum or phenol red to generate 5× solutions (5 µM and 0.5 µM tracer +/− 100 μM competing compound). To screen the library, a BioTek MultiFlo FX liquid dispenser was used to dispense 22.5 µL of tracer solution to the top 4 rows and 22.5 µL tracer + competing compound solution to the 4 bottom rows. Plates were briefly mixed on an orbital shaker and incubated for 1.5 h at room temperature. […] Plates were briefly mixed on an orbital shaker and incubated for 15 min to allow complementation.

T1 sequence (P35372 whole entry): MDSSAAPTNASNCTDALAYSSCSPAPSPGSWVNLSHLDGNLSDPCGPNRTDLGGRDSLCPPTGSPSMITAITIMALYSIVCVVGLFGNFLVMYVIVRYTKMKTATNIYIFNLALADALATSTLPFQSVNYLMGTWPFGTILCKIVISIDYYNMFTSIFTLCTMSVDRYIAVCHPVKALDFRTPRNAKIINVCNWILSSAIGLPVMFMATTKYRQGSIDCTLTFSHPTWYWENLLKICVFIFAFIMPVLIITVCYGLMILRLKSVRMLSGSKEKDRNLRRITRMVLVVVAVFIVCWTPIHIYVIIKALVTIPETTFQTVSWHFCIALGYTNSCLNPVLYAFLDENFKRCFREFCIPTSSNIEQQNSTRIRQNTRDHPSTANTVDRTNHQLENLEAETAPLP

Row | Compound | NanoBRET Fold Response (OPRM1, tracer 0.1μM) | NanoBRET Fold Response (OPRM1, tracer 1μM) | also measured
1 | O=C(CCc1ccc2n1[B-](F)(F)[N+]1=C(c3ccc[nH]3)C=CC1=C2)NCc1ccc(C(=O)NCCOCCC(=O)N[C@@H]2CC[C@@]3(O)[C@H]4Cc5ccc(O)c6c5[C@@]3(CCN4CC3CC3)[C@H]2O6)cc1 [Naltrexone-3-NB590] | 1.59 | 1.31 | –
2 | CCCn1c(=O)c2[nH]c(-c3ccc(OCC(=O)NCCNC(=O)CCOCCNC(=O)c4ccc(CNC(=O)CCc5ccc6n5[B-](F)(F)[N+]5=C(c7ccc[nH]7)C=CC5=C6)cc4)cc3)nc2n(CCC)c1=O [XAC-3-NB590] | 0.85 | 1.02 | –
3 | CC(C)N(CC[C@H](c1ccccc1)c1cc(CCNC(=O)c2ccc(CNC(=O)CCc3ccc4n3[B-](F)(F)[N+]3=C(c5ccc[nH]5)C=CC3=C4)cc2)ccc1O)C(C)C [Tolterodine-BZ-NB590] | 0.95 | 0.93 | –
4 | N#CN/C(=N\CCNC(=O)c1ccc(N)cc1)NCCCOc1cccc(CN2CCCCC2)c1 [Aminopotentidine (unmodified)] | – | – | NanoBRET Fold Response (OPRM1, other tracers/Aminopotentidine (unmodified), 0.1μM): 1.22; NanoBRET Fold Response (OPRM1, other tracers/Aminopotentidine (unmodified), 1μM): 0.99
5 | COc1ccc2[nH]c(-c3ccc(CNC(=O)CCOCCOCCOCCOCCNC(=O)CCc4ccc5n4[B-](F)(F)[N+]4=C(c6ccc[nH]6)C=CC4=C5)cc3)c(CCNC(C)=O)c2n1 [AzomelatoninICO9-2-NB590] | – | – | NanoBRET Fold Response (0.1μM tracer): 0.74; NanoBRET Fold Response (1μM tracer): 0.86
6 | CN1CCN(C2=Nc3cc(Cl)ccc3N(CC(=O)NCCOCCOCCOCCOCCNC(=O)CCc3ccc4n3[B-](F)(F)[N+]3=C(c5ccc[nH]5)C=CC3=C4)c3ccccc32)CC1 [Clozapine-c-2-NB590] | – | – | NanoBRET Fold Response (OPRM1, 0.1μM tracer): 0.98; NanoBRET Fold Response (OPRM1, 1μM tracer): 0.94
7 | COc1ccccc1N1CCN(CCCCN2C(=O)c3ccc(CNC(=O)CCOCCNC(=O)c4ccc(CNC(=O)CCc5ccc6n5[B-](F)(F)[N+]5=C(c7ccc[nH]7)C=CC5=C6)cc4)cc3C2=O)CC1 [NAN-190-3-NB590] | 1.39 | 0.91 | –
8 | Cc1nc2n(c(=O)c1CCN1CCC(c3noc4cc(F)ccc34)CC1)CCCC2OC(=O)NCCOCCOCCOCCOCCNC(=O)CCc1ccc2n1[B-](F)(F)[N+]1=C(c3ccc[nH]3)C=CC1=C2 (stereo not shown) [Risperidone-2-NB590] | 0.92 | 0.96 | –
9 | O=C(CCOCCOCCOCCOCCNC(=O)CCc1ccc2n1[B-](F)(F)[N+]1=C(c3ccc[nH]3)C=CC1=C2)NCCCN1CCN(C2=Nc3ccccc3Oc3ccc(Cl)cc32)CC1 [Loxapine-a-2-NB590] | 1.06 | 1.06 | –
10 | COc1ccccc1N1CCN(CCCCN2C(=O)c3ccc(CNC(=O)CCOCCOCCOCCOCCNC(=O)CCc4ccc5n4[B-](F)(F)[N+]4=C(c6ccc[nH]6)C=CC4=C5)cc3C2=O)CC1 [NAN-190-2-NB590] | 0.96 | 1.10 | –
11 | CC(C)N(CC[C@H](c1ccccc1)c1cc(CCNC(=O)CCOCCOCCOCCOCCNC(=O)CCc2ccc3n2[B-](F)(F)[N+]2=C(c4ccc[nH]4)C=CC2=C3)ccc1O)C(C)C [Tolterodine-2-NB590] | 1.23 | 1.10 | –
12 | N#CN=C(NCCCOc1cccc(CN2CCCCC2)c1)NCCNC(=O)CCOCCOCCOCCOCCNC(=O)CCc1ccc2n1[B-](F)(F)[N+]1=C(c3ccc[nH]3)C=CC1=C2 [Aminopotentidine-2-NB590] | 1.02 | 1.01 | –
13 | CCOC(=O)c1cc(C#N)c(N2CCC(C(=O)NS(=O)(=O)Cc3ccccc3/C=C/C(=O)NCCNC(=O)CCc3ccc4n3[B-](F)(F)[N+]3=C(c5ccc[nH]5)C=CC3=C4)CC2)nc1C [AZD1283-1-NB590] | – | – | NanoBRET Fold Response (OPRM1, 0.1μM): 1.07; NanoBRET Fold Response (OPRM1, 1μM): 0.95
14 | CN(C)CCC=C1c2ccccc2CCc2ccc(C(=O)NCCNC(=O)CCOCCOCCOCCOCCNC(=O)CCc3ccc4n3[B-](F)(F)[N+]3=C(c5ccc[nH]5)C=CC3=C4)cc21 [Amitriptyline-b-2-NB590] | – | – | NanoBRET Fold Response (tracer at 0.1μM, listed as amitriptyline-b-2-NB590): 0.87; NanoBRET Fold Response (tracer at 1μM, listed as amitriptyline-b-2-NB590): 0.87
15 | CN(C)CCC=C1c2ccccc2CCc2ccc(C(=O)NCCNC(=O)CCOCCOCCOCCOCCNC(=O)CCc3ccc4n3[B-](F)(F)[N+]3=C(c5ccc[nH]5)C=CC3=C4)cc21 [Amitriptyline-a-2-NB590] | – | – | NanoBRET Fold Response (tracer at 0.1μM): 0.95; NanoBRET Fold Response (tracer at 1μM): 1.10
16 | O=C(CCc1ccc2n1[B-](F)(F)[N+]1=C(c3ccc[nH]3)C=CC1=C2)NCCOCCOCCNC(=O)OCCOCCN1CCN(C2=Nc3ccccc3Sc3ccccc32)CC1 [Quetiapine-a-2-NB590] | 0.84 | 0.89 | –
17 | Cc1cc2c(s1)Nc1ccccc1N=C2N1CCN(CCCNC(=O)CCOCCOCCOCCOCCNC(=O)CCc2ccc3n2[B-](F)(F)[N+]2=C(c4ccc[nH]4)C=CC2=C3)CC1 [Olanzapine-a-2-NB590] | 0.96 | 1.08 | –
18 | CN1CCN(C2=Nc3cc(Cl)ccc3Nc3ccc(CNC(=O)CCOCCOCCOCCOCCNC(=O)CCc4ccc5n4[B-](F)(F)[N+]4=C(c6ccc[nH]6)C=CC4=C5)cc32)CC1 [Clozapine-b-2-NB590] | – | – | NanoBRET Fold Response (OPRM1, 0.1μM tracer): 0.96; NanoBRET Fold Response (OPRM1, 1μM tracer): 0.86
19 | COc1ccc2c(n1)c(CCNC(C)=O)cn2CCNC(=O)CCc1ccc2n1[B-](F)(F)[N+]1=C(c3ccc[nH]3)C=CC1=C2 [Azamelatonin-1-NB590] | – | – | NanoBRET Fold Response (0.1μM tracer): 1.22; NanoBRET Fold Response (1μM tracer): 1.22
20 | CN(CCC=C1c2ccccc2CCc2ccccc21)C(=O)CCOCCOCCOCCOCCNC(=O)CCc1ccc2n1[B-](F)(F)[N+]1=C(c3ccc[nH]3)C=CC1=C2 [Amitriptyline-e-2-NB590] | – | – | NanoBRET Fold Response (tracer at 1μM): 1.04
21 | O=C(CCc1ccc2n1[B-](F)(F)[N+]1=C(c3ccc[nH]3)C=CC1=C2)NCc1ccc(C(=O)NCCOCCOCCNCC(O)COc2cccc3ccccc23)cc1 (stereo not shown) [Propranolol-3-NB590] | – | – | NanoBRET Fold Response (OPRM1, 0.1μM): 1.02; NanoBRET Fold Response (OPRM1, 1μM): 1.21
22 | O=C(CCOCCOCCOCCOCCNC(=O)CCc1ccc2n1[B-](F)(F)[N+]1=C(c3ccc[nH]3)C=CC1=C2)NCCCN1CCN(C2=Nc3cc(Cl)ccc3Nc3ccccc32)CC1 [Clozapine-a-2-NB590] | – | – | NanoBRET Fold Response (OPRM1, 0.1μM tracer): 0.98; NanoBRET Fold Response (OPRM1, 1μM tracer): 1.13
